From PMC7827648 (Molecules, 2021)
“And” between values parts separate entries of the source, which are not always exact repeats. Equal entries are not always repeated. Where two headings read alike, the source gives them in different places.

Tests used:
[1] = test system: RD (rhabdomyosarcoma) cells; assay: Cytotoxicity, MTT assay, RD cells; assay type: cell-based; conditions: Homo sapiens, read-out: IC50, 50% inhibition of the cell population growth, 72 h, mean ± SD
Protocol: (§1) The cytotoxicity of the newly synthesized Schiff bases was evaluated in vitro in a panel of cultured tumor cells, assessing cell viability at scalar concentrations of the test compounds (≤500 μM) by MTT (i.e., 3-(4,5-dimethylthiazol-2-yl)-2,5-diphenyltetrazolium bromide) and Alamar Blue assays, using doxorubicin as the positive controls. Most of the compounds were tested against RD (rhabdomyosarcoma), HCT116 (intestinal carcinoma), HeLa (adenocarcinoma of the cervix uterus) and A549 (lung adenocarcinoma) cell lines, whereas five representative compounds of the subsets were tested also against K562 (chronic myelogenous leukemia) tumor cells.
(§2) The experiments were carried out in triplicate.

[2] = test system: HCT116 (intestinal carcinoma) cells; assay: Cytotoxicity, MTT assay, HCT116 cells; assay type: cell-based; conditions: Homo sapiens, HCT-116, read-out: IC50, 50% inhibition of the cell population growth, 72 h, mean ± SD
Protocol: as §1, §2

[3] = test system: HeLa (adenocarcinoma of the cervix uterus) cells; assay: Cytotoxicity, MTT assay, HeLa cells; assay type: cell-based; conditions: Homo sapiens, read-out: IC50, 50% inhibition of the cell population growth, 72 h, mean ± SD
Protocol: as §1, §2

[4] = test system: A549 (lung adenocarcinoma) cells; assay: Cytotoxicity, MTT assay, A549 cells; assay type: cell-based; conditions: Homo sapiens, read-out: IC50, 50% inhibition of the cell population growth, 72 h, mean ± SD
Protocol: as §1, §2

[5] = test system: K562 (chronic myelogenous leukemia) cells; assay: Cytotoxicity, Alamar Blue (resazurin) assay, K562 cells; assay type: cell-based; conditions: Homo sapiens, read-out: IC50, 50% inhibition of the cell population growth, 72 h, mean ± SD
Protocol: as §1, §2

[6] = target: human acetylcholinesterase (AChE) (Homo sapiens, UniProt P22303); assay: biochemical; conditions: for inhibition mechanism on hAChE: Michaelis-Menten / Lineweaver-Burk plots; for Ki: complete kinetics, human AChE, read-out: inhibition constant (Ki) hAChE; for IC50: human recombinant AChE, pH 8.0, mean ± SD (n = 3), read-out: IC50 hAChE
human acetylcholinesterase (AChE), sequence (P22303 32-614): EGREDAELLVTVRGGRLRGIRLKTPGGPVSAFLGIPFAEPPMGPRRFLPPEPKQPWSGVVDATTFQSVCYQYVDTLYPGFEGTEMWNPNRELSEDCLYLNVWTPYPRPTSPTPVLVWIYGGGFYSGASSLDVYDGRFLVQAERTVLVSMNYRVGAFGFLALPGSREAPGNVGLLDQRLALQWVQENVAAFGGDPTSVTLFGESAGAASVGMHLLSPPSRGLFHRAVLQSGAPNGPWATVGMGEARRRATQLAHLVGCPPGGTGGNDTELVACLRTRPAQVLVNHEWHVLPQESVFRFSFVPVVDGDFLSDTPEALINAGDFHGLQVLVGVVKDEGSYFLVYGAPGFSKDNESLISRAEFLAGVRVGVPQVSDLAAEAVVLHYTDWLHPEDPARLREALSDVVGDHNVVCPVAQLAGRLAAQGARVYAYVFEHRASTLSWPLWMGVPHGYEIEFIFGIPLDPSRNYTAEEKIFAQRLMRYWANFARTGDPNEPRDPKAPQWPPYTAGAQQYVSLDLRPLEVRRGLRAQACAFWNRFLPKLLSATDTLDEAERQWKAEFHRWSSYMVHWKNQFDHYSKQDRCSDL
Protocol: (§3) The ChE inhibition assay was carried out using the Ellman’s spectrophotometric method [23], as applied to the 96-well plate technique [24] on a Tecan Infinite M1000 Pro instrument (Cernusco s.N., Italy).

[7] = target: T1, human butyrylcholinesterase (BChE) (Homo sapiens, UniProt P06276); assay: BChE inhibition, Ellman's method; assay type: biochemical; conditions: mean ± SD (n = 3), n.i. = no inhibition; for % inhibition hBChE: at 10 μM; for inhibition at 10 µM: read-out: % inhibition hBChE
T1 construct: BChE from human serum (50 U/mg); from tissue; host or cells: human serum
T1 sequence (P06276 29-602): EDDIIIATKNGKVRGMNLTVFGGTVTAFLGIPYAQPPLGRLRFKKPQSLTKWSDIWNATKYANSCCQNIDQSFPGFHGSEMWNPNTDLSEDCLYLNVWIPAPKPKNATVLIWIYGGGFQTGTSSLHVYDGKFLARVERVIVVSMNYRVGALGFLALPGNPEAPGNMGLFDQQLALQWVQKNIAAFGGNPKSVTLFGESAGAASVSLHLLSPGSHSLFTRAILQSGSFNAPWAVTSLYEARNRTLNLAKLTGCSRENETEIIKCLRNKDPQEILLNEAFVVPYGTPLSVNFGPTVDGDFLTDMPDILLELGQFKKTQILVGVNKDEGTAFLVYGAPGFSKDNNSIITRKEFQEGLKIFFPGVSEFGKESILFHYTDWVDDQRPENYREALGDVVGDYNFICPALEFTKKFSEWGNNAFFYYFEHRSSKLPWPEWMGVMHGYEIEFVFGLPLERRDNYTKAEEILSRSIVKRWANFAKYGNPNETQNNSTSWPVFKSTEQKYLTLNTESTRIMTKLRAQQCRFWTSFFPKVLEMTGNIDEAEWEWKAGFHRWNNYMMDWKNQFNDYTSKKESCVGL
Protocol: as §3

[8] = target: T2, β-amyloid (Aβ)1–40 self-aggregation (Homo sapiens, UniProt P05067); assay: Inhibition of self-induced Aβ40 aggregation, thioflavin T fluorescence; assay type: biochemical; conditions: for IC50: PBS pH 7.4, 2 h
T2 construct: self-aggregation of Aβ peptides 1–40 (Aβ40)
T2 sequence (P05067 672-711 limits assumed): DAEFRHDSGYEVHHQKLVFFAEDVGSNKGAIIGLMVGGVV
Protocol: Molecules able to inhibit simultaneously AChE and β-amyloid (Aβ) aggregation/neurotoxicity may have potential as drugs for the treatment of AD [14]. Herein, the new DHPPIQ derivatives were evaluated for the inhibitory effects on the self-aggregation of Aβ peptides 1–40 (Aβ40), through a test based on the measurement of thioflavin T (ThT) fluorescence. Quercetin, which is a strong inhibitor of in vitro Aβ self-aggregation, was used as a positive control.
Each compound was initially tested at a 100-μM concentration. […] […].
According to an already reported 96-well plate procedure, the test compounds at 100 μM were incubated with Aβ40 (30 μM) and 2% HFIP (1,1,1,3,3,3-hexafluoro-2-propanol), used as aggregation enhancer in PBS pH 7.4 for 2 h at room temperature. After the addition of ThT, the fluorescence was read at the 440/485 nm excitation/emission wavelength. Experiments were performed in triplicate, and the % inhibition values calculated as mean ± SD.

human MAO A = target: T3, human MAO A (Homo sapiens, UniProt P21397); assay: biochemical; conditions: for inhibition at 10 µM: read-out: % inhibition hMAO A; for IC50: human recombinant MAO A, kynuramine, read-out: IC50 hMAO A
T3 construct: host or cells: baculovirus-infected insect cells (microsomes)
T3 sequence (P21397 1-527): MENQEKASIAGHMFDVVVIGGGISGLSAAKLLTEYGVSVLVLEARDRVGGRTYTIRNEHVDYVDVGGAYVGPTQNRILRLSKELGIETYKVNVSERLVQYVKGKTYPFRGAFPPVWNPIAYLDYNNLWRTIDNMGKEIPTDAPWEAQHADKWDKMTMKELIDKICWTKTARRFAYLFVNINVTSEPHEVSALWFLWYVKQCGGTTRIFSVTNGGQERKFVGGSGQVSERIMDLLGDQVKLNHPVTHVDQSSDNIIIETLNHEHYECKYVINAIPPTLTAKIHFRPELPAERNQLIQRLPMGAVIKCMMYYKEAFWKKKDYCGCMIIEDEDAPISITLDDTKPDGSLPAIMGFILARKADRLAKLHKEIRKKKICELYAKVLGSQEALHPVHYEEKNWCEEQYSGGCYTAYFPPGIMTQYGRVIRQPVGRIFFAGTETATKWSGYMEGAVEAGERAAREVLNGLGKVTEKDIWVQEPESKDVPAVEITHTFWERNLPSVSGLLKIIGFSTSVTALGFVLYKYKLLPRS
Protocol: (§4) The inhibition of human recombinant MAO A (250 U/mg) and B (59 U/mg; microsomes from baculovirus-infected insect cells) was evaluated using the reported 96-well plate technique [12]. on a Tecan Infinite M1000 Pro instrument (Cernusco s.N., Italy). […] After addition of the enzyme and 30 min of incubation, NaOH was added and the fluorescence read at the 310/400 excitation/emission wavelength.

human MAO B = target: T4, human MAO B (Homo sapiens, UniProt P27338); assay: biochemical; conditions: for inhibition at 10 µM: mean ± SD (n = 3), read-out: % inhibition hMAO B
T4 construct: host or cells: baculovirus-infected insect cells (microsomes)
T4 sequence (P27338 1-520): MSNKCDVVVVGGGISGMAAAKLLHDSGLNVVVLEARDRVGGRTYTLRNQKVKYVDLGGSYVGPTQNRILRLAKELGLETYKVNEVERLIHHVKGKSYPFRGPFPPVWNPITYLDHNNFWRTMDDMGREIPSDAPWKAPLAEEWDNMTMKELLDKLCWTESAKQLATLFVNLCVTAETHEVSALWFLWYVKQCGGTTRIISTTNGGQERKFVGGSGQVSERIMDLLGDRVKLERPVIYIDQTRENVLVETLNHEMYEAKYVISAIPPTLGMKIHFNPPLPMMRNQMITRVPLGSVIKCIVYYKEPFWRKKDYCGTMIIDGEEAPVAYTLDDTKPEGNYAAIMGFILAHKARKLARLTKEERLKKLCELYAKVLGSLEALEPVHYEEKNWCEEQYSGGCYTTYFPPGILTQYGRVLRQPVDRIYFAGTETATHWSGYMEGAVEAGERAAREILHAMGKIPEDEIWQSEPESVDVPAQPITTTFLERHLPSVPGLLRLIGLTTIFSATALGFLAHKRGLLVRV
Protocol: as §4

in vitro = conditions: human
[9] = test system: RD (rhabdomyosarcoma) cells; design: method as in doi:10.1055/s-0036-1588486; conditions: read-out: IC50, 50% inhibition of the cell population growth, RD, data taken from ref [3]; cited from earlier work
[10] = test system: HCT116 (intestinal carcinoma) cells; design: method as in doi:10.1055/s-0036-1588486; conditions: read-out: IC50, 50% inhibition of the cell population growth, HCT116, data taken from ref [3]; cited from earlier work
[11] = test system: A549 (lung adenocarcinoma) cells; design: method as in doi:10.1055/s-0036-1588486; conditions: read-out: IC50, 50% inhibition of the cell population growth, A549, data taken from ref [3]; cited from earlier work
[12] = Aβ40 30 μM, 2% HFIP, ThT, mean ± SD (n = 3)

Row | SMILES | IC50 [1] | IC50 [2] | IC50 [3] | IC50 [4] | IC50 [6] | IC50 at 72 h (in vitro; SH-SY5Y neuroblastoma cells) | IC50 [8, 12] | inhibition at 10 µM (human MAO B) | melting point | also measured
1 | CCOc1ccc(-c2c(CN(C)CCNC)cn3c2-c2cc(OCC)c(OCC)cc2CC3)cc1OCC.O=C(O)/C=C/C(=O)O [Compound 17a, 2-(([1-(3,4-diethoxyphenyl]-8,9-diethoxy-5,6-dihydropyrrolo[2,1-a]isoquinolin-2-yl)methyl)(methyl)amino)-N-methylethan-1-aminium (E)-3-carboxyacrylate] | 10.1 ± 0.1 µM | 18.6 ± 0.4 µM | 29.7 ± 0.9 µM | 35.9 ± 2.4 µM | 16 µM and 16.4 µM | 17.9 ± 0.1 µM |  |  |  | IC50 [5]: 46.6 ± 1.5 µM; inhibition mechanism on hAChE [6]: noncompetitive/mixed-type inhibition mechanism; Ki [6]: 13.6 ± 0.1 µM; % inhibition hBChE [7]: n.i.; inhibition at 100 µM ([8]; at 100 μM, Aβ40 30 μM, 2% HFIP, ThT, mean ± SD (n = 3)): 31 ± 3%; inhibition at 10 µM (human MAO A): 38 ± 5%; IC50 (human MAO B): 14.3 ± 1.4 µM
2 | CCOc1ccc(-c2c(C=O)c(-c3ccccc3)n3c2-c2cc(OCC)c(OCC)cc2CC3)cc1OCC [Compound 2] |  |  |  |  |  |  |  |  |  | IC50 [9]: 365 ± 23 µM; IC50 [10]: 183 ± 0.1 µM; IC50 [11]: 229 ± 21 µM
3 | COc1cc2c(cc1OC)-c1c(-c3ccc(Cl)cc3)c(/C=N/c3ccc(/N=C/c4cn5c(c4-c4ccc(Cl)cc4)-c4cc(OC)c(OC)cc4CC5)cc3)cn1CC2 [Compound 14, (1E,1’E)-N,N’-(1,4-phenylene)bis(1-(1-[4-chlorophenyl]-8,9-dimethoxy-5,6-dihydropyrrolo[2,1-a]isoquinolin-2-yl)methanimine)] | 269 ± 11 µM | 390 ± 16 µM | 310 ± 12 µM | > 500 µM | 7.3 ± 0.74 µM |  | 13 ± 1 µM | 19 ± 5% |  | hAChE potency relative to the reference compound galantamine ([6]; 14 vs galantamine): tenfold less potent; inhibition mechanism on hAChE [6]: noncompetitive/mixed-type inhibition mechanism; Ki [6]: 4.69 µM; inhibition at 10 µM [7]: 13 ± 1%; fold stronger inhibition of Aβ40 aggregation than the respective mono-DHPPIQ Schiff base 9 ([8]; ratio of IC50 values, 14 vs 9): 3.5 fold; IC50 (human MAO A; mean ± SD (n = 3)): 12.1 ± 2.3 µM; IC50 at 72 h (in vitro): 29.3 ± 0.1 µM
4 | COc1ccc(/N=C/c2cn3c(c2-c2ccc(Cl)cc2)-c2cc(OC)c(OC)cc2CC3)cc1 [Compound 9, (E)-1-(1-(4-chlorophenyl)-8,9-dimethoxy-5,6-dihydropyrrolo[2,1-a]isoquinolin-2-yl)-N-(4-methoxyphenyl)methanimine] | 76.4 ± 4.7 µM | 37.2 ± 2.4 µM | 35.2 ± 0.7 µM | 99.4 ± 1.1 µM | 29.3 ± 2.3 µM | 22.1 ± 0.8 µM | 46 ± 5 µM | 29 ± 5% |  | IC50 [5]: 105 ± 8 µM; inhibition at 10 µM [7]: 13 ± 4%; inhibition at 10 µM (human MAO A; at 10 μM, mean ± SD (n = 3)): 39 ± 2%
5 | CCOc1ccc(-c2c(/C=N/N=C/c3cn4c(c3-c3ccc(OCC)c(OCC)c3)-c3cc(OCC)c(OCC)cc3CC4)cn3c2-c2cc(OCC)c(OCC)cc2CC3)cc1OCC [Compound 18, (1E,2E)-1,2-bis((1-[3,4-diethoxyphenyl]-8,9-diethoxy-5,6-dihydropyrrolo[2,1-a]isoquinolin-2-yl)methylene)hydrazine] |  | > 500 µM | 302 ± 23 µM |  |  |  |  |  | 230 to 232 °C | 
6 | CCOc1ccc(-c2c(/C=N/c3ccc(OC)cc3)c(-c3ccccc3)n3c2-c2cc(OCC)c(OCC)cc2CC3)cc1OCC [Compound 8, (E)-1-(1-(3,4-diethoxyphenyl)-8,9-diethoxy-3-phenyl-5,6-dihydropyrrolo[2,1-a]isoquinolin-2-yl)-N-(4-methoxyphenyl)methanimine] | 412 ± 20 µM | 286 ± 5 µM | 304 ± 10 µM |  |  |  |  |  | 93 to 95 °C | 
7 | COc1ccc(/N=C/c2c(-c3ccc(F)cc3)c3n(c2-c2ccccc2)CCc2cc(OC)c(OC)cc2-3)cc1 [Compound 12, (E)-1-(1-(4-fluorophenyl)-8,9-dimethoxy-3-phenyl-5,6-dihydropyrrolo[2,1-a]isoquinolin-2-yl)-N-(4-methoxyphenyl)methanimine] | > 500 µM | 148 ± 14 µM | 450 ± 19 µM | > 500 µM |  |  |  |  | 195 to 197 °C | 
8 | COc1ccc(/N=C/c2cn3c(c2-c2ccc(F)cc2)-c2cc(OC)c(OC)cc2CC3)cc1 [Compound 11, (E)-1-(1-(4-fluorophenyl)-8,9-dimethoxy-5,6-dihydropyrrolo[2,1-a]isoquinolin-2-yl)-N-(4-methoxyphenyl)methanimine] | 145 ± 1 µM | 114 ± 4 µM | 87.2 ± 1.1 µM | 153 ± 2.2 µM |  | 56.1 ± 2.4 µM | 54 ± 2.2 µM | 22 ± 4% |  | inhibition at 10 µM ([6]; at 10 μM, mean ± SD (n = 3), read-out: % inhibition hAChE): 40 ± 2%; % inhibition hBChE [7]: n.i.; IC50 (human MAO A; mean ± SD (n = 3)): 18.1 ± 1.2 µM
